Tests used:
[1] = biological target: Recombinant human Cbl-b (aa 36-427) (Homo sapiens, UniProt Q13191); assay: Cbl-b Biochemical Assay (TR-FRET); conditions: read-out: TR-FRET hCbl-b IC50
[2] = tested on: Jurkat (clone E6-1) cells with NFAT luciferase reporter; assay: Jurkat reporter assay (NFAT Luciferase); type: cell-based; conditions: Homo sapiens; Jurkat NFAT luciferase reporter cells, anti-CD3 stimulation, 6 hr; read-out: Jurkat NFAT EC50
[3] = biological target: T1, Recombinant human c-Cbl (aa 47-435) (Homo sapiens, UniProt P22681); assay: c-Cbl Biochemical Assay (TR-FRET); conditions: hc-Cbl Biochemical Assay (TR-FRET); read-out: TR-FRET hcCbl IC50
T1 sequence (P22681 47-435): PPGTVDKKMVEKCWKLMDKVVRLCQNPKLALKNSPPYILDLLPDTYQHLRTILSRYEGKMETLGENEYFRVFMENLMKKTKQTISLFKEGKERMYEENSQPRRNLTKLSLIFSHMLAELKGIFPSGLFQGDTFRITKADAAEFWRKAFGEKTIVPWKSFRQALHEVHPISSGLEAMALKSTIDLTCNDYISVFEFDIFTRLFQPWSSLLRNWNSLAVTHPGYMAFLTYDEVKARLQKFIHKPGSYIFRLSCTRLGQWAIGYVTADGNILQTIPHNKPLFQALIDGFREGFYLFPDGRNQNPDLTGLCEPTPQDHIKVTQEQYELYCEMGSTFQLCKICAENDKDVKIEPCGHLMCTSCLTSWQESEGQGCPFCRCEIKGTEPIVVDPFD

Sequence of Recombinant human Cbl-b (aa 36-427) (Q13191 36-427): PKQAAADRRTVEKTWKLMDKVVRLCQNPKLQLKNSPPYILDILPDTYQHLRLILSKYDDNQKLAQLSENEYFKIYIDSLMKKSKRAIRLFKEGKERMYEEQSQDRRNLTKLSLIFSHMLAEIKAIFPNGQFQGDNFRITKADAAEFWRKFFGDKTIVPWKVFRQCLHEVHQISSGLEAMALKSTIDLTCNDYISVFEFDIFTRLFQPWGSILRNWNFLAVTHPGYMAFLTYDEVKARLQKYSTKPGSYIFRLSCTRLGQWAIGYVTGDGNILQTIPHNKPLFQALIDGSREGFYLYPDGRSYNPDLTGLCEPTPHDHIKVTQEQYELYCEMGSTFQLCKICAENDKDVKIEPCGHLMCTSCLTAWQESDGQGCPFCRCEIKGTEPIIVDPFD

| Structure (SMILES) | IC50 [1] | EC50 [2] | IC50 [3] |
| --- | --- | --- | --- |
| Cn1cnnc1-c1cc(F)ccc1-c1cccc(-c2nc3cc(CNCC4CC4)cc(C(F)(F)F)c3o2)c1 [FB-2, 1-Cyclopropyl-N-((2-(4′-fluoro-2′-(4-methyl-4H-1,2,4-triazol-3-yl)-[1,1′-biphenyl]-3-yl)-7-(trifluoromethyl)benzo[d]oxazol-5-yl)methyl)methanamine] | < 200 nM | < 200 nM | < 200 nM |
| CO[C@H]1CCCN(Cc2cc(C(F)(F)F)c3oc(-c4cccc(-c5ccc(F)cc5-c5nncn5C)c4)nc3c2)C1 [IU-2, (S)-2-(4′-Fluoro-2′-(4-methyl-4H-1,2,4-triazol-3-yl)-[1,1′-biphenyl]-3-yl)-5-((3-methoxypiperidin-1-yl)methyl)-7-(trifluoromethyl)benzo[d]oxazole] | < 200 nM | 200 to 1000 nM | < 200 nM |
| Cn1cnnc1-c1cc(F)ccc1-c1cc(-c2nc3cc(CO)c(F)c(F)c3o2)nc(C2CC2)c1 [AFX-1, (2-{6-cyclopropyl-4-[4-fluoro-2-(4-methyl-1,2,4-triazol-3-yl)phenyl]pyridin-2-yl}-6,7-difluoro-1,3-benzoxazol-5-yl)methanol] | 200 to 1000 nM | 200 to 1000 nM | 200 to 1000 nM |
| Cc1cc(CNCC2(O)CCC2)cc2nc(-c3cc(-c4ccc(F)cc4-c4nncn4C)cc(C4CC4)n3)oc12 [AEV-1, 1-({[(2-{6-Cyclopropyl-4-[4-fluoro-2-(4-methyl-1,2,4-triazol-3-yl)phenyl]pyridin-2-yl}-7-methyl-1,3-benzoxazol-5-yl)methyl]amino}methyl)cyclobutan-1-ol] | < 200 nM | < 200 nM | < 200 nM |
| CO[C@@H](C)[C@H](C)NCc1cc(C)c2oc(-c3cc(-c4ccc(F)cc4-c4nncn4C)cc(C4CC4)n3)nc2c1 [AGC-2, [(2-{6-Cyclopropyl-4-[4-fluoro-2-(4-methyl-1,2,4-triazol-3-yl)phenyl]pyridin-2-yl}-7-methyl-1,3-benzoxazol-5-yl)methyl][(2S,3S)-3-methoxybutan-2-yl]amine] | < 200 nM | < 200 nM | < 200 nM |
| CCNCc1cc2nc(-c3cc(-c4ccc(F)cc4-c4nncn4C)cc(C4CC4)n3)oc2c(F)c1F [AGZ-2, [(2-{6-cyclopropyl-4-[4-fluoro-2-(4-methyl-1,2,4-triazol-3-yl)phenyl]pyridin-2-yl}-6,7-difluoro-1,3-benzoxazol-5-yl)methyl](ethyl)amine] | < 200 nM | 200 to 1000 nM | 200 to 1000 nM |
| CC(C)NCc1cc(C(F)(F)F)c2oc(-c3cccc(-c4ccc(F)cc4-c4nncn4C)c3)nc2c1 [EP-2, N-((2-(4′-Fluoro-2′-(4-methyl-4H-1,2,4-triazol-3-yl)-[1,1′-biphenyl]-3-yl)-7-(trifluoromethyl)benzo[d]oxazol-5-yl)methyl)propan-2-amine] | < 200 nM | 200 to 1000 nM | 200 to 1000 nM |
| Cn1cnnc1-c1cc(F)ccc1-c1cccc(-c2nc3cc(CNCC4(O)CC4)cc(C(F)(F)F)c3[nH]2)c1 [BV-1, 1-((((2-(4′-Fluoro-2′-(4-methyl-4H-1,2,4-triazol-3-yl)-[1,1′-biphenyl]-3-yl)-7-(trifluoromethyl)-1H-benzo[d]imidazol-5-yl)methyl)amino)methyl)cyclopropan-1-ol] | < 200 nM | 200 to 1000 nM | 1000 to 10000 nM |
| COc1cccc2oc(-c3cccc(-c4ccc(F)cc4-c4nncn4C)c3)nc12 [FH-2, 2-(4′-Fluoro-2′-(4-methyl-4H-1,2,4-triazol-3-yl)-[1,1′-biphenyl]-3-yl)-4-methoxybenzo[d]oxazole] | 1000 to 10000 nM | 10000 to 50000 nM | 1000 to 10000 nM |

Now from value to molecule:

| IC50 [1] | EC50 [2] | IC50 [3] | Structure (SMILES) |
| --- | --- | --- | --- |
| < 200 nM | 1000 to 10000 nM | 200 to 1000 nM | Cn1cnnc1-c1cc(F)ccc1-c1cc(-c2nc3cc(CNC(C)(C)C4CCC4)c(F)c(F)c3o2)nc(C2CC2)c1 [AGD-1, (2-Cyclobutylpropan-2-yl)[(2-{6-cyclopropyl-4-[4-fluoro-2-(4-methyl-1,2,4-triazol-3-yl)phenyl]pyridin-2-yl}-6,7-difluoro-1,3-benzoxazol-5-yl)methyl]amine] |
| < 200 nM | 200 to 1000 nM | 200 to 1000 nM | Cc1cc(CN(C)CC2(O)CCC2)cc2nc(-c3cc(-c4ccc(F)cc4-c4nncn4C)cc(C4CC4)n3)oc12 [AFH-2, 1-({[(2-{6-Cyclopropyl-4-[4-fluoro-2-(4-methyl-1,2,4-triazol-3-yl)phenyl]pyridin-2-yl}-7-methyl-1,3-benzoxazol-5-yl)methyl](methyl)amino}methyl)cyclobutan-1-ol] |
| < 200 nM | 200 to 1000 nM | < 200 nM | CN(Cc1cc(F)c2oc(-c3cc(-c4ccc(F)cc4-c4nncn4C)cc(C4CC4)n3)nc2c1)[C@@H]1CCC[C@@H]1O [AFK-1, (1S,2R)-2-{[(2-{6-Cyclopropyl-4-[4-fluoro-2-(4-methyl-1,2,4-triazol-3-yl)phenyl]pyridin-2-yl}-7-fluoro-1,3-benzoxazol-5-yl)methyl](methyl)amino}cyclopentan-1-ol] |
| < 200 nM | 1000 to 10000 nM | 10000 to 50000 nM | C[C@H]1CCCN(Cc2cc(C(F)(F)F)c3[nH]c(-c4cccc([C@]5(c6nncn6C)C[C@@H](C)C5)c4)nc3c2)C1 [AAX-12, 6-{[(3S)-3-Methylpiperidin-1-yl]methyl}-2-{3-[(1r,3s)-3-methyl-1-(4-methyl-1,2,4-triazol-3-yl)cyclobutyl]phenyl}-4-(trifluoromethyl)-3H-1,3-benzodiazole] |
| < 200 nM | 1000 to 10000 nM | 1000 to 10000 nM | Cn1cnnc1-c1cc(F)ccc1-c1cccc(-c2nc3cc(CN4CCCC[C@H]4CO)cc(C(F)(F)F)c3o2)c1 [JB-2, (S)-(1-((2-(4′-Fluoro-2′-(4-methyl-4H-1,2,4-triazol-3-yl)-[1,1′-biphenyl]-3-yl)-7-(trifluoromethyl)benzo[d]oxazol-5-yl)methyl)piperidin-2-yl)methanol] |
| < 200 nM | 200 to 1000 nM | < 200 nM | Cn1cnnc1-c1cc(F)ccc1-c1cc(-c2nc3cc(CN[C@@H]4CCC[C@@H]4O)ccc3[nH]2)nc(C2CC2)c1 [AEF-2, (1S,2R)-2-(((2-(6-Cyclopropyl-4-(4-fluoro-2-(4-methyl-4H-1,2,4-triazol-3-yl)phenyl)pyridin-2-yl)-1H-benzo[d]imidazol-5-yl)methyl)amino)cyclopentan-1-ol] |
| < 200 nM | < 200 nM | < 200 nM | Cn1cnnc1-c1cc(F)ccc1-c1cc(-c2nc3cc(CNCC4(O)CCC4)ccc3o2)nc(C2CC2)c1 [AFC-1, 1-({[(2-{6-Cyclopropyl-4-[4-fluoro-2-(4-methyl-1,2,4-triazol-3-yl)phenyl]pyridin-2-yl}-1,3-benzoxazol-5-yl)methyl]amino}methyl)cyclobutan-1-ol] |
| < 200 nM | < 200 nM | < 200 nM | COCCNCc1cc2nc(-c3cccc(-c4ccc(F)cc4-c4nncn4C)c3)oc2c(F)c1F [IY-1, N-((6,7-Difluoro-2-(4′-fluoro-2′-(4-methyl-4H-1,2,4-triazol-3-yl)-[1,1′-biphenyl]-3-yl)benzo[d]oxazol-5-yl)methyl)-2-methoxyethan-1-amine] |
| < 200 nM | < 200 nM | < 200 nM | COc1cc(CN[C@@H](C)C2CCC2)cc2nc(-c3cccc(-c4ccc(F)cc4-c4nncn4C)c3)oc12 [GF-2, (S)-1-Cyclobutyl-N-((2-(4′-fluoro-2′-(4-methyl-4H-1,2,4-triazol-3-yl)-[1,1′-biphenyl]-3-yl)-7-methoxybenzo[d]oxazol-5-yl)methyl)ethan-1-amine] |
| < 200 nM | 200 to 1000 nM | 1000 to 10000 nM | Cn1cnnc1-c1cc(F)ccc1-c1cccc(-c2nc3cc(CNCC4(O)COC4)cc(C(F)(F)F)c3o2)c1 [AC-2, 3-((((2-(4′-Fluoro-2′-(4-methyl-4H-1,2,4-triazol-3-yl)-[1,1′-biphenyl]-3-yl)-7-(trifluoromethyl)benzo[d]oxazol-5-yl)methyl)amino)methyl)oxetan-3-ol] |
| < 200 nM | 1000 to 10000 nM | 200 to 1000 nM | Cn1cnnc1-c1cc(F)ccc1-c1cccc(-c2nc3ccc(CN[C@@H]4CCC[C@@H]4O)cc3o2)c1 [DD-2, (1S,2R)-2-(((2-(4′-Fluoro-2′-(4-methyl-4H-1,2,4-triazol-3-yl)-[1,1′-biphenyl]-3-yl)benzo[d]oxazol-6-yl)methyl)amino)cyclopentan-1-ol] |
| < 200 nM | < 200 nM | < 200 nM | CCOc1cc(-c2ccc(F)cc2-c2nncn2C)cc(-c2nc3cc(CN[C@@H]4CCC[C@@H]4O)cc(OC)c3o2)n1 [ADM-14, (1S,2R)-2-{[(2-{6-Ethoxy-4-[4-fluoro-2-(4-methyl-1,2,4-triazol-3-yl)phenyl]pyridin-2-yl}-7-methoxy-1,3-benzoxazol-5-yl)methyl]amino}cyclopentan-1-ol] |
| 200 to 1000 nM | 1000 to 10000 nM | 200 to 1000 nM | Cn1cnnc1-c1cc(F)ccc1-c1cccc(-c2nc3cc(CO)cc(C(F)F)c3o2)c1 [EX-6, (7-(Difluoromethyl)-2-(4′-fluoro-2′-(4-methyl-4H-1,2,4-triazol-3-yl)-[1,1′-biphenyl]-3-yl)benzo[d]oxazol-5-yl)methanol] |
